From ChEMBL document CHEMBL5500399, “Design, Synthesis, and Biological Evaluation of 1,2,4-Oxadiazole Derivatives Containing an Aryl Carboxylic Acid Moiety as Potent Sarbecovirus Papain-like Protease Inhibitors” (J Med Chem, 2024)

target: Replicase polyprotein 1ab (Severe acute respiratory syndrome coronavirus 2, UniProt P0DTD1); assay: Inhibition of SARS-CoV2 PLpro using Z-RLRGG-AMC as substrate preincubated for 10 mins followed by substrate addition and measured after 20 sec shaking for 30 mins by time-resolved fluorescence assay

Q: `COc1ccc(-c2noc(C(C)c3cccc4ccccc34)n2)cc1NCc1ccc(C(=O)O)s1` (stereo not drawn) was tested. Which IC50 did it give?
A: 1.3 µM

Q: For `Cc1ccc(-c2noc(-c3ccccc3)n2)cc1NCc1ccc(C(=O)O)s1`, which IC50 is on record?
A: 59 µM

Q: `Cc1ccc(Nc2ccc(C(=O)O)cc2)cc1-c1noc(C(C)c2cccc3ccccc23)n1` (stereo not drawn) was tested. Which IC50 did it give?
A: 10.7 µM

Q: How did the IC50 turn out when `Cc1ccc(N)cc1-c1noc(C(C)c2cccc3ccccc23)n1` (stereo not drawn) was run?
A: > 200 µM

Q: Which IC50 does the source give for `CONC(=O)c1ccc(-c2ccc(-c3noc(C(C)c4cccc5ccccc45)n3)cc2)cc1` (stereo not drawn) here?
A: 0.9 µM

Q: For `COC1CCC(Nc2ccc(C)c(-c3noc(C(C)c4cccc5ccccc45)n3)c2)CC1` (stereo not drawn), which IC50 is on record?
A: 114 µM

Q: `COc1ccc2cc(C(C)c3nc(-c4ccc(C)c(NCc5ccc(C(=O)O)s5)c4)no3)ccc2c1` (racemic) was tested. Which IC50 did it give?
A: 5.9 µM

Q: `COC(=O)c1ccc(CNc2ccc(C)c(-c3noc(C(C)c4cccc5ccccc45)n3)c2)cc1` (stereo not drawn) was tested. Which IC50 did it give?
A: > 200 µM

Q: For `Cc1ccc(NCc2ccc(C(=O)O)o2)cc1-c1noc(C(C)c2cccc3ccccc23)n1` (stereo not drawn), which IC50 is on record?
A: 14.4 µM

Q: Which IC50 does the source give for `Cc1ccc(NCc2ccc(O)cc2)cc1-c1noc(C(C)c2cccc3ccccc23)n1` (stereo not drawn) here?
A: 176 µM

Q: With `Cc1ccc(-c2noc([C@H](C)c3ccc(-c4ccccc4)c(F)c3)n2)cc1NCc1ccc(C(=O)O)s1` as the molecule, how does the IC50 read?
A: 4 µM

Q: Which IC50 does the source give for `Cc1ccc(-c2noc(C(O)c3ccccc3)n2)cc1NCc1ccc(C(=O)O)s1` (stereo not drawn) here?
A: 435 µM

Q: `Cc1ccc(-c2noc(-c3ccc(-c4ccccc4)cc3)n2)cc1NCc1ccc(C(=O)O)s1` was tested. Which IC50 did it give?
A: 25.5 µM

Q: With `Cc1ccc(NCc2ccc(S(C)(=O)=O)cc2)cc1-c1noc(C(C)c2cccc3ccccc23)n1` (stereo not drawn) as the molecule, how does the IC50 read?
A: 59.2 µM

Q: For `Cc1ccc(-c2noc(-c3cccc4ccccc34)n2)cc1NCc1ccc(C(=O)O)s1`, which IC50 is on record?
A: 11.6 µM

Q: How did the IC50 turn out when `Cc1ccc(NCC(C)(C)C)cc1-c1noc(C(C)c2cccc3ccccc23)n1` (stereo not drawn) was run?
A: > 200 µM

Q: `Cc1ccc(-c2noc(C(C)c3cccc(-c4ccccc4)c3)n2)cc1NCc1ccc(C(=O)O)s1` (stereo not drawn) was tested. Which IC50 did it give?
A: 4.3 µM

Q: `COC(=O)c1ccc(Nc2ccc(C)c(-c3noc(C(C)c4cccc5ccccc45)n3)c2)cc1` (stereo not drawn) was tested. Which IC50 did it give?
A: 70.9 µM

Q: `CC(c1nc(-c2cccc(NCc3ccc(C(=O)O)o3)c2)no1)c1cccc2ccccc12` (stereo not drawn) was tested. Which IC50 did it give?
A: 96.5 µM

Q: How did the IC50 turn out when `CC(c1nc(-c2ccc(NCc3ccc(C(=O)O)cc3)cc2)no1)c1cccc2ccccc12` (stereo not drawn) was run?
A: 50.2 µM

Q: For `Cc1ccc(-c2noc(C(C)c3cccc4ccccc34)n2)cc1NCc1ccc(C(=O)O)cc1` (stereo not drawn), which IC50 is on record?
A: 0.2 µM

Q: `CC(c1ncc(-c2ccc(-c3ccc(C#N)s3)cc2)o1)c1cccc2ccccc12` (stereo not drawn) was tested. Which IC50 did it give?
A: 20.8 µM

Q: How did the IC50 turn out when `CC(c1nc(-c2ccc(-c3ccc(C#N)s3)cc2)no1)c1cccc2ccccc12` (stereo not drawn) was run?
A: 0.6 µM

Q: With `Cc1ccc(NC2CCCC(C(=O)O)C2)cc1-c1noc(C(C)c2cccc3ccccc23)n1` (stereo not drawn) as the molecule, how does the IC50 read?
A: 35.1 µM

Q: `CC(c1nc(-c2cccc(NCc3ccc(C(=O)O)cc3)c2)no1)c1cccc2ccccc12` (stereo not drawn) was tested. Which IC50 did it give?
A: 7.5 µM

Q: For `Cc1ccc(-c2noc(C(C)c3ccc(CC(C)C)cc3)n2)cc1NCc1ccc(C(=O)O)s1` (stereo not drawn), which IC50 is on record?
A: 3.6 µM

Q: Which IC50 does the source give for `COc1ccc2cc([C@@H](C)c3nc(-c4ccc(C)c(NCc5ccc(C(=O)O)s5)c4)no3)ccc2c1` here?
A: 10.5 µM

Q: With `CC(c1nc(-c2ccc(-c3ccc(C(=O)O)cc3)cc2)no1)c1cccc2ccccc12` (stereo not drawn) as the molecule, how does the IC50 read?
A: 11.7 µM
